Conditions: for mass density: Vibrating tube method

FC(F)=C(F)C(F)(F)F [hexafluoropropene]
Conditions	mass density [kg/m3]	vapor or sublimation pressure [kPa]
348.16 K, 3450.8 kPa, Liquid	1027.09	–
348.16 K, 3473.5 kPa, Liquid	1028.21	–
348.16 K, 3495.4 kPa, Liquid	1029.31	–
348.16 K, 3556 kPa, Liquid	1032.19	–
348.16 K, 3620.1 kPa, Liquid	1035.16	–
348.16 K, 3683.5 kPa, Liquid	1037.98	–
348.16 K, 3748.1 kPa, Liquid	1040.81	–
348.16 K, 3811.8 kPa, Liquid	1043.57	–
348.16 K, 3875.5 kPa, Liquid	1046.1	–
348.16 K, 4030.8 kPa, Liquid	1052.17	–
348.16 K, 4092 kPa, Liquid	1054.62	–
348.16 K, 4154 kPa, Liquid	1057.08	–
348.16 K, 4217.2 kPa, Liquid	1059.37	–
348.16 K, 4278.7 kPa, Liquid	1061.59	–
348.16 K, 4339.9 kPa, Liquid	1063.83	–
348.16 K, 4402.1 kPa, Liquid	1065.77	–
348.16 K, 4464.2 kPa, Liquid	1067.89	–
348.16 K, 4526 kPa, Liquid	1070.05	–
348.16 K, 4587.8 kPa, Liquid	1072.01	–
348.16 K, 4650.2 kPa, Liquid	1074.03	–
348.16 K, 4713.9 kPa, Liquid	1075.88	–
348.16 K, 4776 kPa, Liquid	1077.88	–
348.16 K, 4837.4 kPa, Liquid	1079.66	–
348.16 K, 4898.5 kPa, Liquid	1081.71	–
348.16 K, 4959.8 kPa, Liquid	1083.32	–
348.16 K, 5022.6 kPa, Liquid	1085.31	–
348.16 K, 5083.3 kPa, Liquid	1086.88	–
348.16 K, 5144.8 kPa, Liquid	1088.55	–
348.16 K, 5206 kPa, Liquid	1090.21	–
348.16 K, 5267.2 kPa, Liquid	1091.82	–
348.16 K, 5329.1 kPa, Liquid	1093.58	–
348.16 K, 5389.3 kPa, Liquid	1095.16	–
348.16 K, 5451.8 kPa, Liquid	1096.85	–
348.16 K, 5513.3 kPa, Liquid	1098.5	–
348.16 K, 5576.7 kPa, Liquid	1100.15	–
348.16 K, 5638.9 kPa, Liquid	1101.65	–
348.16 K, 5701.8 kPa, Liquid	1103.22	–
348.16 K, 5762.2 kPa, Liquid	1104.69	–
348.16 K, 5825.1 kPa, Liquid	1106.21	–
348.16 K, 5886.9 kPa, Liquid	1107.77	–
348.16 K, 5948.2 kPa, Liquid	1109.1	–
348.16 K, 6012.5 kPa, Liquid	1110.68	–
348.16 K, 6074.1 kPa, Liquid	1112.14	–
348.16 K, 6135.8 kPa, Liquid	1113.56	–
348.16 K, 6199.8 kPa, Liquid	1114.99	–
348.16 K, 6262.2 kPa, Liquid	1116.4	–
348.16 K, 6326.8 kPa, Liquid	1117.78	–
348.16 K, 6392.4 kPa, Liquid	1119.12	–
348.16 K, 6456 kPa, Liquid	1120.57	–
348.16 K, 6517.7 kPa, Liquid	1121.84	–
348.16 K, 6581 kPa, Liquid	1123.2	–
348.16 K, 6643.4 kPa, Liquid	1124.53	–
348.16 K, 6706.3 kPa, Liquid	1125.82	–
348.16 K, 6767.7 kPa, Liquid	1127.07	–
348.16 K, 6830.9 kPa, Liquid	1128.32	–
348.16 K, 6893 kPa, Liquid	1129.63	–
348.16 K, 6955.9 kPa, Liquid	1130.87	–
348.16 K, 7017.5 kPa, Liquid	1132.05	–
348.16 K, 7142.8 kPa, Liquid	1134.61	–
348.16 K, 7205.4 kPa, Liquid	1135.79	–
348.16 K, 7269.5 kPa, Liquid	1136.95	–
348.16 K, 7332.4 kPa, Liquid	1138.09	–
348.16 K, 7396.2 kPa, Liquid	1139.31	–
348.16 K, 7458.5 kPa, Liquid	1140.53	–
348.16 K, 7521.9 kPa, Liquid	1141.64	–
348.16 K, 7584.8 kPa, Liquid	1142.73	–
348.16 K, 7646.8 kPa, Liquid	1143.93	–
348.16 K, 7707.9 kPa, Liquid	1145.12	–
348.16 K, 7771.4 kPa, Liquid	1146.25	–
348.16 K, 7835.4 kPa, Liquid	1147.35	–
348.16 K, 7897.7 kPa, Liquid	1148.36	–
348.16 K, 7961.9 kPa, Liquid	1149.49	–
348.16 K, 8025.7 kPa, Liquid	1150.51	–
348.16 K, 8087.3 kPa, Liquid	1151.69	–
348.16 K, 8149.7 kPa, Liquid	1152.67	–
348.16 K, 8214.5 kPa, Liquid	1153.77	–
348.16 K, 8278.5 kPa, Liquid	1154.85	–
348.16 K, 8341.3 kPa, Liquid	1155.78	–
348.16 K, 8406.3 kPa, Liquid	1157	–
348.16 K, 8469.9 kPa, Liquid	1157.97	–
348.16 K, 8531.4 kPa, Liquid	1158.94	–
348.16 K, 8594.4 kPa, Liquid	1159.97	–
348.16 K, 8659.7 kPa, Liquid	1160.84	–
348.16 K, 8722.7 kPa, Liquid	1161.97	–
348.16 K, 8786.5 kPa, Liquid	1163	–
348.16 K, 8848.4 kPa, Liquid	1163.83	–
348.16 K, 8911.7 kPa, Liquid	1164.85	–
348.16 K, 8974.2 kPa, Liquid	1165.76	–
348.16 K, 9039.8 kPa, Liquid	1166.77	–
348.16 K, 9105.6 kPa, Liquid	1167.83	–
348.16 K, 9170.3 kPa, Liquid	1168.8	–
348.16 K, 9233.7 kPa, Liquid	1169.7	–
348.16 K, 9295.2 kPa, Liquid	1170.74	–
348.16 K, 9362.9 kPa, Liquid	1171.78	–
348.16 K, 9399.4 kPa, Liquid	1172.31	–
348.16 K, 9466.9 kPa, Liquid	1173.32	–
348.16 K, 9534.3 kPa, Liquid	1174.34	–
348.16 K, 9571.4 kPa, Liquid	1174.89	–
348.16 K, 9609.6 kPa, Liquid	1175.39	–
348.16 K, 9656.8 kPa, Liquid	1176.01	–
348.16 K, 9696 kPa, Liquid	1176.45	–
348.16 K, 9739.9 kPa, Liquid	1177.06	–
348.16 K, 9788.9 kPa, Liquid	1175.42	–
348.16 K, 9833.1 kPa, Liquid	1175.9	–
348.16 K, 9877.8 kPa, Liquid	1176.32	–
348.16 K, 9944.3 kPa, Liquid	1179.73	–
348.16 K, 10016 kPa, Liquid	1180.6	–
348.22 K, Liquid, Closed cell (Static) method	–	2500.5
353.12 K, 6.6 kPa, Fluid (supercritical or subcritical phases)	0.343	–
353.12 K, 8.7 kPa, Fluid (supercritical or subcritical phases)	0.497	–
353.12 K, 11.7 kPa, Fluid (supercritical or subcritical phases)	0.619	–
353.12 K, 14.3 kPa, Fluid (supercritical or subcritical phases)	0.737	–
353.12 K, 16.6 kPa, Fluid (supercritical or subcritical phases)	0.793	–
353.12 K, 24.1 kPa, Fluid (supercritical or subcritical phases)	1.232	–
353.12 K, 26.7 kPa, Fluid (supercritical or subcritical phases)	1.395	–
353.12 K, 28.8 kPa, Fluid (supercritical or subcritical phases)	1.442	–
353.12 K, 32.7 kPa, Fluid (supercritical or subcritical phases)	1.694	–
353.12 K, 35.6 kPa, Fluid (supercritical or subcritical phases)	1.827	–
353.12 K, 38.2 kPa, Fluid (supercritical or subcritical phases)	1.904	–
353.12 K, 101.9 kPa, Fluid (supercritical or subcritical phases)	5.291	–
353.12 K, 111.4 kPa, Fluid (supercritical or subcritical phases)	5.735	–
353.12 K, 120.9 kPa, Fluid (supercritical or subcritical phases)	6.245	–
353.12 K, 129.7 kPa, Fluid (supercritical or subcritical phases)	6.695	–
353.12 K, 140.7 kPa, Fluid (supercritical or subcritical phases)	7.318	–
353.12 K, 151.2 kPa, Fluid (supercritical or subcritical phases)	7.845	–
353.12 K, 160.5 kPa, Fluid (supercritical or subcritical phases)	8.339	–
353.12 K, 169.9 kPa, Fluid (supercritical or subcritical phases)	8.914	–
353.12 K, 180.3 kPa, Fluid (supercritical or subcritical phases)	9.389	–
353.12 K, 189.6 kPa, Fluid (supercritical or subcritical phases)	9.904	–
353.12 K, 199 kPa, Fluid (supercritical or subcritical phases)	10.374	–
353.12 K, 209.3 kPa, Fluid (supercritical or subcritical phases)	11.01	–
353.12 K, 220.4 kPa, Fluid (supercritical or subcritical phases)	11.538	–
353.12 K, 230.8 kPa, Fluid (supercritical or subcritical phases)	12.133	–
353.12 K, 242.1 kPa, Fluid (supercritical or subcritical phases)	12.723	–

Reference: the NIST ThermoML archive (doi:10.1021/je900596d)
